Assay results reported in publication PMC7395068, “The evolution of strategies to minimise the risk of human drug-induced liver injury (DILI) in drug discovery and development” (Archives of Toxicology, 2020).
Where a name gives a salt, the structure may show the parent alone. Read-outs that look alike come from different tables or passages of the source. One block for each molecule: values may come before it.

Experiments:
[1] = test system: hu-MPCC; settings: cited from earlier work
[2] = test system: RMPCC's; settings: cited from earlier work
[3] = test system: human hepatocytes; settings: cited from earlier work
[4] = cited from earlier work
[5] = ref Chen 2011; cited from earlier work
[6] = Plasma free fraction (fu) and unbound Cmax (Cmax,u); assay type: in vitro ADME, human; settings: unbound plasma Cmax
[7] = test system: isolated mouse liver mitochondria; settings: In vitro Assay; ref Porceddu 2012; cited from earlier work
[8] = read-out: Human plasma Cmax; total plasma Cmax.tot, median of 9 literature references; cited from earlier work
[9] = test system: Upcyte human hepatocytes; settings: In vitro Assay; ref Tolosa 2019; cited from earlier work
[10] = test system: THLE or HepG2 cells, isolated mitochondria, BSEP; settings: cited from earlier work
[11] = test system: RMPCC's; settings: In vitro Assay; ref Khetani 2012; cited from earlier work
[12] = test system: hLiMTs; assay: Combined HCI (HCS) and cellular ATP 3D assay in hLiMTs
[13] = test system: HepG2 cells, primary human hepatocytes; settings: In vitro Assay; ref Garside 2014; cited from earlier work
[14] = test system: rBsep; settings: In vitro Assay; ref Dawson 2012; cited from earlier work
[15] = plasma free fraction; cited from earlier work
[16] = test system: THLE-Null and THLE-3A4 cells; settings: In vitro Assay; ref Gustafsson 2014; cited from earlier work
[17] = test system: HepaRG spheroids; assay: Combined HCI (HCS) and cellular ATP 3D assay in HepaRG spheroids; settings: for AC50 / minimal effective concentration: Homo sapiens; for DILI prediction HepaRG spheroids (HCS-MEC): Microtissue model structural based (HCI), combined HCS and ATP, MEC < 25 × Cmax.tot cut-off
[18] = test system: primary human hepatocytes, NIH3T3 fibroblasts, BSEP, CYP3A4; settings: cited from earlier work
[19] = test system: HepG2 cells; settings: cited from earlier work
[20] = test system: HepG2; design: method as in Albrecht 2019; settings: In vitro Assay; ref Albrecht 2019; cited from earlier work
[21] = test system: PHH; settings: In vitro Assay; ref Albrecht 2019; cited from earlier work
[22] = cited from earlier work; remark: listed apart in the source
[23] = test system: HepG2 cells; settings: In vitro Assay; ref O'Brien 2006; cited from earlier work
[24] = test system: rBsep; design: method as in Dawson 2012; settings: In vitro Assay; ref Dawson 2012; cited from earlier work
[25] = In vitro Assay, ref Khetani 2012
[26] = Modeled in vitro assays (cytotoxicity, mitochondrial dysfunction, BSEP), ref Aleo et al. 2019
[27] = In vitro Assay, ref Schadt 2015

SMILES: CCN(CC)CCOc1ccc(C(=C(Cl)c2ccccc2)c2ccccc2)cc1 [clomiphene citrate]
- HMPCC's [1, 25]: -VE
- RMPCC's [2, 25]: -VE
- Structural based (HCI) ([3]; In vitro Assay, ref Xu 2008): -VE
- In vivo DILI ([4]; ref Khetani 2012): +VE
- In vivo DILI ([4]; ref Xu 2008): +VE

SMILES: CC(=O)O[C@]1(C(C)=O)CC[C@H]2[C@@H]3C=C(Cl)C4=CC(=O)[C@@H]5C[C@@H]5[C@]4(C)[C@H]3CC[C@@]21C [cyproterone acetate]
- HMPCC's [1, 25]: +VE
- RMPCC's [2, 25]: +VE
- Structural based (HCI) ([3]; In vitro Assay, ref Xu 2008): -VE
- In vivo DILI ([4]; […]): +VE
- In vivo DILI ([4]; ref Khetani 2012): +VE
- In vivo DILI ([4]; ref Xu 2008): +VE

- Human plasma Cmax,u [6]: 74.267 µM
- hLiMTs <25x Avg Cmax ATP ([12]; hLiMTs, ATP endpoint, cut-off <25x Avg Cmax): -ve
- hLiMTs <100x Avg Cmaxu ATP ([12]; hLiMTs, ATP endpoint, cut-off <100x Avg Cmaxu): -ve
- hLiMTs <25x Avg Cmax HCS ([12]; hLiMTs, HCS endpoints, cut-off <25x Avg Cmax): -ve
- hLiMTs <100x Avg Cmaxu HCS ([12]; hLiMTs, HCS endpoints, cut-off <100x Avg Cmaxu): -ve
- hLiMTs <25x Avg Cmax All ([12]; hLiMTs, all endpoints (ATP and HCS), cut-off <25x Avg Cmax): -ve
- hLiMTs Cmax max All ([12]; hLiMTs, all endpoints, Cmax max used): -ve
- hLiMTs Cmax min All ([12]; hLiMTs, all endpoints, Cmax min used): -ve
- hLiMTs <10 uM All ([12]; hLiMTs, all endpoints, cut-off <10 uM): -ve
- hLiMTs <100x Avg Cmaxu All ([12]; hLiMTs, all endpoints, cut-off <100x Avg Cmaxu): -ve
- HepaRG <25x Avg Cmax ATP ([17]; HepaRG, ATP endpoint, cut-off <25x Avg Cmax): +ve
- HepaRG <100x Avg Cmaxu ATP ([17]; HepaRG, ATP endpoint, cut-off <100x Avg Cmaxu): +ve (<100x Avg Cmaxu)
- HepaRG <25x Avg Cmax HCS ([17]; HepaRG, HCS endpoints, cut-off <25x Avg Cmax): -ve
- HepaRG <100x Avg Cmaxu HCS ([17]; HepaRG, HCS endpoints, cut-off <100x Avg Cmaxu): +ve (<100x Avg Cmaxu)
- HepaRG <25x Avg Cmax All ([17]; HepaRG, all endpoints (ATP and HCS), cut-off <25x Avg Cmax): +ve
- HepaRG Cmax max All ([17]; HepaRG, all endpoints, Cmax max used): +ve
- HepaRG Cmax min All ([17]; HepaRG, all endpoints, Cmax min used): -ve
- HepaRG <10 uM All ([17]; HepaRG, all endpoints, cut-off <10 uM): -ve
- HepaRG <100x Avg Cmaxu All ([17]; HepaRG, all endpoints, cut-off <100x Avg Cmaxu): +ve (<100x Avg Cmaxu)
SMILES: NNC(=O)c1ccncc1 [isoniazid, reference compound]
- DILI Score (FDA) (1-8) [5]: 8
- HMPCC's [1, 25]: +VE
- in vitro data EC2<=1x Cmax [7]: +VE
- in vitro data EC20<=2uM [7]: -VE
- Structural based (HCI) ([3]; In vitro Assay, ref Xu 2008): -VE
- DILI in vitro assay prediction, Xu (2008) ([3]; Structural based (HCI), human hepatocytes, ref Xu et al. 2008): -VE
- Cmax [8]: 76.6 µM
- Upcytes multi donor assay 14day data [9]: +VE
- Partition Hybrid HRM Score ([10]; In vitro Assay, ref Aleo 2019): +VE
- Ro2 Hybrid HRM Score ([10]; In vitro Assay, ref Aleo 2019): -VE
- Partition Hybrid HRM Score ≥4, Aleo (2019) [10, 26]: +VE (Partition Hybrid HRM Score ≥4)
- Partition Hybrid HRM Score ≥8, Aleo (2019) [10, 26]: -VE
- Rule of Two hybrid HRM Score ≥3, Aleo (2019) [10, 26]: -VE
- Rule of Two hybrid HRM Score ≥8, Aleo (2019) [10, 26]: -VE
- Assigned DILI category ([4]; Chen et al. 2016 or literature alignment, ref Chen et al. 2016): 3
- In vivo DILI ([4]; […]): +VE
- In vivo DILI ([4]; ref Albrecht 2019): +VE
- In vivo DILI ([4]; ref Aleo 2019): +VE
- In vivo DILI ([4]; ref Dawson 2012): +VE
- In vivo DILI ([4]; ref Garside 2014): +VE
- In vivo DILI ([4]; ref Gustafsson 2014): +VE
- In vivo DILI ([4]; ref Khetani 2012): +VE
- In vivo DILI ([4]; ref Porceddu 2012): +VE
- In vivo DILI ([4]; ref Schadt 2015): +VE
- In vivo DILI ([4]; ref Tolosa 2012): +VE
- In vivo DILI ([4]; ref Tolosa 2019): +VE
- In vivo DILI ([4]; ref Xu 2008): +VE
- RMPCC's [11]: -VE
- DILI prediction hLiMTs (HCS-MEC) ([12]; Microtissue model structural based (HCI), combined HCS and ATP, MEC < 25 × Cmax.tot cut-off): -VE
- Cluster 1-6 +VE Assay [13]: -VE
- Inhibition of rBsep cutoff<1& cmax u>.2 [14]: -VE
- Inhibition of rBsep cutoff<3 [14]: -VE
- fu [15]: 0.970
- THLE-Null [16]: -VE
- AC50 ([17]; HepaRG, read-out: ATP endpoint AC50): 3.52 mM
- minimal effective concentration ([17]; HepaRG, read-out: ATP endpoint MEC): 1330 µM
- AC50 ([17]; HepaRG, read-out: HCS endpoint AC50): 14 mM
- minimal effective concentration ([17]; HepaRG, read-out: HCS endpoint MEC): 5790 µM
- DILI prediction HepaRG spheroids (HCS-MEC) [17]: +VE (MEC < 25 × Cmax.tot cut-off)
- DILI prediction HepaRG spheroids (HCS-MEC) ([17]; listed as Isoniazid): positive
- DILI in vitro assay prediction, Schadt (2015) ([18]; BSEP & Metabolism based, ref Schadt et al. 2015): +VE
- Cellular toxicity (3T3 cells) [18, 27]: -VE
- Combined Assay [18, 27]: +VE
- GSH adduct HML [18, 27]: -VE
- Hepatocyte cellular toxicity [18, 27]: -VE
- MitoTox 3T3 [18, 27]: +VE
- hBSEP inhibition [18, 27]: -VE
- Structural based (HCI) ([19]; In vitro Assay, ref Tolosa 2012): +VE
- DILI in vitro assay prediction, Tolosa (2012) ([19]; Structural based (HCI), HepG2, ref Tolosa et al. 2012): -VE
- Cytotoxicity HepG2 48 hrs [20]: +VE
- Cytotoxicity PHH 48 hrs [21]: +VE
- DILI severity category (Chen 2016) ([22]; human DILI classification, LTKB DILIrank, ref Chen et al. 2016): Most
- DILI severity category ([22]; human DILI severity, ref Chen et al.): Most
- DILI +VE (5-8), DILI -VE (-4) ([22]; ref Chen 2016): +VE
- DILI severity category ([22]; ref Chen 2016): vMost-DILI-Concern

SMILES: C#CC1(O)CC[C@H]2[C@@H]3CCC4=CC(=O)CC[C@@H]4[C@H]3CC[C@@]21CC (stereo partly drawn) [norgestrel]
- HMPCC's [1]: -VE
- RMPCC's [2]: -VE
- Structural based (HCI) [3]: -VE
- In vivo DILI ([4]; in vivo): +VE

SMILES: CCCC(CCC)C(=O)O [valproate]
- Structural based (HCI) [23]: +VE (lowest HCI endpoint IC50 (or in the absence of dose–response < 100 µM) < 30 × total human plasma exposure levels (Cmax.tot))
- Upcytes multi donor assay 14day data [9]: +VE
- Inhibition of rBsep cutoff<1& cmax u>.2 [24]: -VE
- Inhibition of rBsep cutoff<3 [24]: -VE
